Tests used:
Type in all cases: biochemical
Human mTOR = Human mTOR (Homo sapiens, UniProt P42345); assay: mTOR kinase assay (DELFIA format, purified enzyme); set-up: FLAG; conditions: read-out: TOR Kinase IC50
PI3K-alpha = PI3K-alpha (Homo sapiens, UniProt P42336); assay: PI3K-alpha fluorescence polarization assay; conditions: read-out: PI3 Kinase α IC50
Experimental: (§1) The reaction buffer was 20 mM HEPES, pH 7.5, 2 mM MgCl2, 0.05% CHAPS; and 0.01% βME (added fresh). The Stop/Detection Buffer was 100 mM HEPES, pH 7.5, 4 mM EDTA, 0.05% CHAPS; ATP 20 mM in water; PIP2 (diC8, Echelon, Salt Lake City Utah cat #P-4508) 1 mM in water (MW=856.5). The GST-GRP was 1.75 mg/mL or 1.4 mg/mL in 10% glycerol. The Red detector (TAMRA) was 2.5 μM. Nunc 384-well black polypropylene fluorescent plates were used for PI3K assays.
(§2) The assay is run by placing 5 μL of diluted enzyme per well, then 5 μL of diluted compound (or 9.5 μL enzyme then 0.5 μL compound in DMSO) is added and mixed. Then, 10 μL substrate is added to start the reaction. The samples are incubated 30-60 minutes, then the reaction is stopped by adding 20 μL stop/detector mix. PI3K is diluted with reaction buffer (e.g., 5 μL or 7.5 μL PI3K into 620 μL reaction buffer), and 5 μL of diluted enzyme is used per well. A 5 μL portion of reaction buffer or of drug diluted in buffer (e.g., 4 μL/100 so final DMSO is 1% in reaction) is added to each. Pipetting up and down mixes the samples. Alternatively, the enzyme can be diluted to 1215 μL. In this case 9.8 μL is added per well and 0.2 μL compound is added in DMSO.
(§3) To prepare 1 mL of substrate solution, 955 μL reaction buffer, 40 μL PIP2, and 2.5 μL ATP are mixed. 10 μL of substrate is added to each well to start the reaction. […] The stop/detector mix is prepared by mixing 4 μL Red detector and 1.6 μL or 2.0 μL GST-GRP with 1 mL stop buffer, which results in 10 nM probe and 70 nM GST-GRP. 20 μL of the stop/detector mix is added to each well to stop the reaction. The plates are read after 30-90 minutes keeping the red probe solutions dark. For the zero time point, stop/detector mix is added to the enzyme just before adding substrate. For an extra control, stop/detector mix is added to buffer (no enzyme) and substrate or to just buffer (no substrate). […] The recommended reaction has 0.06 μL per 20 μL (0.015 μg/20 μL) or 0.01125 μg/15 μL or 0.75 μg/mL.
(§4) Plates are read on machines with filters for TAMRA. The units are mP with no enzyme controls reading app 190-220 mP units. Fully active enzyme reduces fluorescence polarization down to 70-100 mP after 30 minutes. An active compound raises the mP values halfway to control or to 120-150 mP units.

PI3K-gamma = PI3K-gamma (Homo sapiens, UniProt P48736); assay: PI3K-gamma fluorescence polarization assay; conditions: read-out: PI3 Kinase γ IC50
Sequence of PI3K-gamma (P48736 whole entry, species assumed): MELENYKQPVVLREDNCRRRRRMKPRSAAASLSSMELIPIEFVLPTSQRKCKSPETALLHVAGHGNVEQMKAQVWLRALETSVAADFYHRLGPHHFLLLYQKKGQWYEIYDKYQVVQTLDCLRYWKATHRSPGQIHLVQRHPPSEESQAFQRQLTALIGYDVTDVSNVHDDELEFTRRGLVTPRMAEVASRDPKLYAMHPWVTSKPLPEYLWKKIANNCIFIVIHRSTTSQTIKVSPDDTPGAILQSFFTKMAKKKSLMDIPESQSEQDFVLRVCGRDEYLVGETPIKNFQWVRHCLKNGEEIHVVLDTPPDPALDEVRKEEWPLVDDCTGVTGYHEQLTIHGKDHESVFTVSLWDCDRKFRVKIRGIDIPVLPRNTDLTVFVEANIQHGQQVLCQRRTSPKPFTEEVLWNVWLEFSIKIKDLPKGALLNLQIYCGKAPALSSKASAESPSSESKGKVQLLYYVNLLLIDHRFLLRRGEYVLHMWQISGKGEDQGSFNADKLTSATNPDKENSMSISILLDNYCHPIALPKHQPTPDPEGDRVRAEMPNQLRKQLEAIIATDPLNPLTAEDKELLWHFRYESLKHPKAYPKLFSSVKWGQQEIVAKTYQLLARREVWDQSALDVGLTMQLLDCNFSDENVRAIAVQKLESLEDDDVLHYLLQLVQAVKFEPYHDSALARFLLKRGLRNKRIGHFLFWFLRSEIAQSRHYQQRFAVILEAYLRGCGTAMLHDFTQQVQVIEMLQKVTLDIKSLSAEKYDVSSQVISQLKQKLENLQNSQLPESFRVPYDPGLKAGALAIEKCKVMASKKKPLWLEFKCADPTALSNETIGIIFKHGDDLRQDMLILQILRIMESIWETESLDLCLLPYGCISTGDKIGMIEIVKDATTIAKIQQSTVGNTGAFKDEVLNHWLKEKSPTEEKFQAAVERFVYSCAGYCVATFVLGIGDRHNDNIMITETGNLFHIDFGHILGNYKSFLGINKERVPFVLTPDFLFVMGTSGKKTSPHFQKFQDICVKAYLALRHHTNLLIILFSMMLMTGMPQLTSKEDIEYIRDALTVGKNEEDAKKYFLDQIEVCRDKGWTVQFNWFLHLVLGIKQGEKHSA
Experimental: as §1, §2, §3, §4

Sequence of PI3K-alpha (P42336 whole entry, species assumed): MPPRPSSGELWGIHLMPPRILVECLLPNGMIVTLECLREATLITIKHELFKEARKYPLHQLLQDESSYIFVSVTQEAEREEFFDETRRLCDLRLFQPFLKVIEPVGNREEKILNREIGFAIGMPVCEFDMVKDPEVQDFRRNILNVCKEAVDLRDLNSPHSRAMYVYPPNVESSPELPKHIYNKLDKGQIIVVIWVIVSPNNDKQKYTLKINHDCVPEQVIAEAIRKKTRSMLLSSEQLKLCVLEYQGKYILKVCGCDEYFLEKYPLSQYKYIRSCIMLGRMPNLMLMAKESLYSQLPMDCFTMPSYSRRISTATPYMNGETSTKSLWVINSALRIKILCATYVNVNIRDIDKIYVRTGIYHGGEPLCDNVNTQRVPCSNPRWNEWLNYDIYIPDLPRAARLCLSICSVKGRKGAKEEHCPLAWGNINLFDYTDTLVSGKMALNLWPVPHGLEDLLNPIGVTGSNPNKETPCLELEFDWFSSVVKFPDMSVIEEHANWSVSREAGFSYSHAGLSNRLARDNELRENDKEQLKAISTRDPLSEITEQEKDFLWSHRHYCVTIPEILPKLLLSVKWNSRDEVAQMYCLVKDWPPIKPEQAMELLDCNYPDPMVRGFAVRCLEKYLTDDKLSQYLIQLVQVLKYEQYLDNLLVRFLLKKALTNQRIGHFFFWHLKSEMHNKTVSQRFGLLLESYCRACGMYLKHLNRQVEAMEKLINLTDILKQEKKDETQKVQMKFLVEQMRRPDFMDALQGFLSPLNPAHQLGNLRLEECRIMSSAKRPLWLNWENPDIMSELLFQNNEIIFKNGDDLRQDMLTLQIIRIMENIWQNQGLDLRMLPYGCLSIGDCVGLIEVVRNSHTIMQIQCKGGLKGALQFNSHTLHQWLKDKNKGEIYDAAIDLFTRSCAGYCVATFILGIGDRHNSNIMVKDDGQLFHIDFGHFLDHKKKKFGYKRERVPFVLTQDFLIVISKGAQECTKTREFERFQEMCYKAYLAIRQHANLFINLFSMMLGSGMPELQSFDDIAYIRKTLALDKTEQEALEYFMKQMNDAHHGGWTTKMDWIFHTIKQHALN
Sequence of PI3K-alpha (P27986 whole entry partner, species assumed): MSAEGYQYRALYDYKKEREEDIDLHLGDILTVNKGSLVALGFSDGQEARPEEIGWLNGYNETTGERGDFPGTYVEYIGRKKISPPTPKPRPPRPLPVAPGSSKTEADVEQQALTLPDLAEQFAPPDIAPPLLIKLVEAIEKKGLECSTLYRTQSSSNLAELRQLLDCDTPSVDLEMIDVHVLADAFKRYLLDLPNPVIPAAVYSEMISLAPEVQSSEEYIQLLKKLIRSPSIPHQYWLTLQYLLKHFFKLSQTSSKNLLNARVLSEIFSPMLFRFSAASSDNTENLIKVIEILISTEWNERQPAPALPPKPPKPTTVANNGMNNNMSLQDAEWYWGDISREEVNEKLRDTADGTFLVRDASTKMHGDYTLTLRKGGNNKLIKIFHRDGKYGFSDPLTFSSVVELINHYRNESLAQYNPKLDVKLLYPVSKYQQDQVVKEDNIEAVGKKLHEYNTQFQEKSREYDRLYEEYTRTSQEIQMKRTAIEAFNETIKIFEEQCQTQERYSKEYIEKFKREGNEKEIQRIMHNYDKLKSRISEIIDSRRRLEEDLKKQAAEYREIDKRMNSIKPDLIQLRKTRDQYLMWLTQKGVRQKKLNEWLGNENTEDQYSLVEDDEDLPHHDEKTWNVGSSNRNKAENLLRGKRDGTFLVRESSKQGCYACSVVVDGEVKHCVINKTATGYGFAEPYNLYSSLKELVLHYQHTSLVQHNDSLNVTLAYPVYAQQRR

| IC50 (Human mTOR) | IC50 (PI3K-alpha) | IC50 (PI3K-gamma) | SMILES |
| --- | --- | --- | --- |
| 0.016 µM | 0.111 µM | 0.147 µM | O=Cc1c[nH]c2ccc3c(N4CCOCC4)nc(-c4cccc(O)c4)nc3c12 [Example 82, 2-(3-hydroxyphenyl)-4-morpholin-4-yl-7H-pyrrolo[2,3-h]quinazoline-9-carbaldehyde] |
| 1.6 µM | 1.76 µM | 4 µM | COC(=O)c1ccc(-c2nc(N3CCOCC3)c3ccc4c(ccn4C)c3n2)cc1 [Example 36, Methyl 4-(7-methyl-4-morpholin-4-yl-7H-pyrrolo[2,3-h]quinazolin-2-yl)benzoate] |
| 0.56 µM | 1.69 µM | 3.5 µM | Cn1ccc2c3nc(-c4ccc(NC(=O)NCc5ccco5)cc4)nc(N4CCOCC4)c3ccc21 [Example 7, 1-(2-furylmethyl)-3-[4-(7-methyl-4-morpholin-4-yl-7H-pyrrolo[2,3-h]quinazolin-2-yl)phenyl]urea] |
| 0.26 µM | 0.062 µM | 0.234 µM | Cn1ccc2c3nc(-c4ccc(NC(=O)Nc5cccc(Cl)c5)cc4)nc(N4CCOCC4)c3ccc21 [Example 13, 1-(3-chlorophenyl)-3-[4-(7-methyl-4-morpholin-4-yl-7H-pyrrolo[2,3-h]quinazolin-2-yl)phenyl]urea] |
| 9.15 µM | 0.455 µM | 4.95 µM | CN(C)CCn1ccc2c3nc(-c4cccc(CO)c4)nc(N4CCOCC4)c3ccc21 [Example 30, (3-{7-[2-(dimethylamino)ethyl]-4-morpholin-4-yl-7H-pyrrolo[2,3-h]quinazolin-2-yl}phenyl)methanol] |
| – | > 10 µM | > 10 µM | Cn1ccc2c3nc(-c4cnc(O)nc4)nc(N4CCOCC4)c3ccc21 [Example 51, 5-(7-methyl-4-morpholin-4-yl-7H-pyrrolo[2,3-h]quinazolin-2-yl)pyrimidin-2-ol] |
| – | 7.83 µM | > 10 µM | Cn1ccc2c3nc(-c4ccc(NS(C)(=O)=O)cc4)nc(N4CCOCC4)c3ccc21 [Example 21, N-[4-(7-methyl-4-morpholin-4-yl-7H-pyrrolo[2,3-h]quinazolin-2-yl)phenyl]methanesulfonamide] |
| 2.55 µM | 7.63 µM | – | CN1CCN(C(=O)Nc2ccc(-c3nc(N4CCOCC4)c4ccc5c(ccn5C)c4n3)cc2)CC1 [Example 6, 4-methyl-N-[4-(7-methyl-4-morpholin-4-yl-7H-pyrrolo[2,3-h]quinazolin-2-yl)phenyl]piperazine-1-carboxamide] |
| 0.0037 µM | 0.101 µM | 0.437 µM | Cn1ccc2c3nc(-c4ccc(NC(=O)Nc5ccncc5)cc4)nc(N4CCOCC4)c3ccc21 [Example 11, 1-[4-(7-methyl-4-morpholin-4-yl-7H-pyrrolo[2,3-h]quinazolin-2-yl)phenyl]-3-pyridin-4-ylurea] |
| 1.7 µM | 0.123 µM | 0.32 µM | OCc1cccc(-c2nc(N3CCOCC3)c3ccc4c(ccn4Cc4ccccc4)c3n2)c1 [Example 83, [3-(7-benzyl-4-morpholin-4-yl-7H-pyrrolo[2,3-h]quinazolin-2-yl)phenyl]methanol] |
| 2.3 µM | – | – | Cn1ccc2c3nc(-c4cccc(C#N)c4)nc(N4CCOCC4)c3ccc21 [Example 40, 3-(7-methyl-4-morpholin-4-yl-7H-pyrrolo[2,3-h]quinazolin-2-yl)benzonitrile] |
| 2.25 µM | 0.245 µM | 5.75 µM | O=C(OCc1ccccc1)N1CCC(S(=O)(=O)n2ccc3c4nc(-c5cccc(O)c5)nc(N5CCOCC5)c4ccc32)CC1 [Example 66, benzyl 4-{[2-(3-hydroxyphenyl)-4-morpholin-4-yl-7H-pyrrolo[2,3-h]quinazolin-7-yl]sulfonyl}piperidine-1-carboxylate] |
| 0.91 µM | 0.214 µM | 1.01 µM | Cn1ccc2c3nc(-c4cc(O)ccc4Cl)nc(N4CCOCC4)c3ccc21 [Example 53, 4-chloro-3-(7-methyl-4-morpholin-4-yl-7H-pyrrolo[2,3-h]quinazolin-2-yl)phenol] |
| 2.35 µM | 0.668 µM | > 10 µM | COc1ncc(-c2nc(N3CCOCC3)c3ccc4c(ccn4C)c3n2)cn1 [Example 50, 2-(2-methoxypyrimidin-5-yl)-7-methyl-4-morpholin-4-yl-7H-pyrrolo[2,3-h]quinazoline] |
| 2.1 µM | 5.42 µM | > 10 µM | C=CC(O)c1cccc(-c2nc(N3CCOCC3)c3ccc4c(ccn4C)c3n2)c1 (stereo not shown) [Example 26, 1-[3-(7-methyl-4-morpholin-4-yl-7H-pyrrolo[2,3-h]quinazolin-2-yl)phenyl]prop-2-en-1-ol] |
| – | 8.88 µM | 3.67 µM | Cn1ccc2c3nc(-c4cccc(F)c4)nc(N4CCOCC4)c3ccc21 [Example 52, 2-(3-fluorophenyl)-7-methyl-4-morpholin-4-yl-7H-pyrrolo[2,3-h]quinazoline] |
| 3.8 µM | 2.97 µM | 4.07 µM | Cn1ccc2c3nc(-c4cccc(C(O)c5ccccc5)c4)nc(N4CCOCC4)c3ccc21 (stereo not shown) [Example 29, [3-(7-methyl-4-morpholin-4-yl-7H-pyrrolo[2,3-h]quinazolin-2-yl)phenyl](phenyl)methanol] |
| 2.05 µM | 2.7 µM | – | CN(C)CCCNC(=O)Nc1ccc(-c2nc(N3CCOCC3)c3ccc4c(ccn4C)c3n2)cc1 [Example 5, 1-[3-(dimethylamino)propyl]-3-[4-(7-methyl-4-morpholin-4-yl-7H-pyrrolo[2,3-h]quinazolin-2-yl)phenyl]urea] |
| 1.11 µM | 0.274 µM | 1.13 µM | O=S(=O)(c1ccccc1)n1ccc2c3nc(-c4cccc(O)c4)nc(N4CCOCC4)c3ccc21 [Example 69, 3-[4-morpholin-4-yl-7-(phenylsulfonyl)-7H-pyrrolo[2,3-h]quinazolin-2-yl]phenol] |
| 0.305 µM | 0.073 µM | 0.39 µM | Cn1ccc2c3nc(-c4cncc(O)c4)nc(N4CCOCC4)c3ccc21 [Example 78, 5-(7-methyl-4-morpholin-4-yl-7H-pyrrolo[2,3-h]quinazolin-2-yl)pyridin-3-ol] |
| 0.435 µM | 1.08 µM | 6.09 µM | Cn1ccc2c3nc(-c4cccc5[nH]ncc45)nc(N4CCOCC4)c3ccc21 [Example 79, 2-(1H-indazol-4-yl)-7-methyl-4-morpholin-4-yl-7H-pyrrolo[2,3-h]quinazoline] |
| 4 µM | – | – | Cn1ccc2c3nc(-c4ccc(C(=O)O)cc4)nc(N4CCOCC4)c3ccc21 [Example 38, 4-(7-methyl-4-morpholin-4-yl-7H-pyrrolo[2,3-h]quinazolin-2-yl)benzoic acid] |
| 1.72 µM | – | – | Cn1ccc2c3nc(-c4cccc(C(N)=O)c4)nc(N4CCOCC4)c3ccc21 [Example 39, 3-(7-methyl-4-morpholin-4-yl-7H-pyrrolo[2,3-h]quinazolin-2-yl)benzamide] |
| 0.805 µM | 6.48 µM | – | Cn1ccc2c3nc(-c4ccc(N)cc4)nc(N4CCOCC4)c3ccc21 [Example 1, 4-(7-methyl-4-morpholin-4-yl-7H-pyrrolo[2,3-h]quinazolin-2-yl)aniline] |
| 0.021 µM | – | – | CCCNC(=O)Nc1ccc(-c2nc(N3CCOCC3)c3ccc4c(ccn4C)c3n2)cc1 [Example 54, 1-[4-(7-methyl-4-morpholin-4-yl-7H-pyrrolo[2,3-h]quinazolin-2-yl)phenyl]-3-propylurea] |
